Assay results published in ChEMBL document CHEMBL5154770, “Discovery of novel ataxia telangiectasia mutated (ATM) kinase modulators: Computational simulation, biological evaluation and cancer combinational chemotherapy study” (Eur J Med Chem, 2022).
The source made the active and inactive calls. The rule behind the calls is not given here.

Tests used:
NCI-H1299 [1] = experiment: Synergistic cytotoxicity against human NCI-H1299 cells assessed as combination index measured in presence of 50 nM AZD0156 after 2 days by SRB assay; format: functional; conditions: time 2 day
NCI-H1299 [2] = experiment: Synergistic cytotoxicity against human NCI-H1299 cells assessed as combination index measured in presence of 50 nM AZD0156 after 6 days by SRB assay; format: functional; conditions: time 6 day
MCF7 [3] = experiment: Additive cytotoxicity against human MCF7 cells assessed as combination index in presence of 10 uM 3-Chloro-4-methoxy-N-((4-(oxazolo[4,5-b]pyridin-2-yl)phenyl)carbamothioyl)benzamide measured after 6 days by SRB assay; format: functional; conditions: time 6 day
[4] = molecular target: T1, Serine-protein kinase ATM (Homo sapiens, UniProt Q13315); experiment: Inhibition of ATM (unknown origin) assessed as decrease in phosphorylation of ATM at 25 uM measured in presence of 1 to 5 uM KU60019 by Western blot analysis
T1 sequence (Q13315 whole entry): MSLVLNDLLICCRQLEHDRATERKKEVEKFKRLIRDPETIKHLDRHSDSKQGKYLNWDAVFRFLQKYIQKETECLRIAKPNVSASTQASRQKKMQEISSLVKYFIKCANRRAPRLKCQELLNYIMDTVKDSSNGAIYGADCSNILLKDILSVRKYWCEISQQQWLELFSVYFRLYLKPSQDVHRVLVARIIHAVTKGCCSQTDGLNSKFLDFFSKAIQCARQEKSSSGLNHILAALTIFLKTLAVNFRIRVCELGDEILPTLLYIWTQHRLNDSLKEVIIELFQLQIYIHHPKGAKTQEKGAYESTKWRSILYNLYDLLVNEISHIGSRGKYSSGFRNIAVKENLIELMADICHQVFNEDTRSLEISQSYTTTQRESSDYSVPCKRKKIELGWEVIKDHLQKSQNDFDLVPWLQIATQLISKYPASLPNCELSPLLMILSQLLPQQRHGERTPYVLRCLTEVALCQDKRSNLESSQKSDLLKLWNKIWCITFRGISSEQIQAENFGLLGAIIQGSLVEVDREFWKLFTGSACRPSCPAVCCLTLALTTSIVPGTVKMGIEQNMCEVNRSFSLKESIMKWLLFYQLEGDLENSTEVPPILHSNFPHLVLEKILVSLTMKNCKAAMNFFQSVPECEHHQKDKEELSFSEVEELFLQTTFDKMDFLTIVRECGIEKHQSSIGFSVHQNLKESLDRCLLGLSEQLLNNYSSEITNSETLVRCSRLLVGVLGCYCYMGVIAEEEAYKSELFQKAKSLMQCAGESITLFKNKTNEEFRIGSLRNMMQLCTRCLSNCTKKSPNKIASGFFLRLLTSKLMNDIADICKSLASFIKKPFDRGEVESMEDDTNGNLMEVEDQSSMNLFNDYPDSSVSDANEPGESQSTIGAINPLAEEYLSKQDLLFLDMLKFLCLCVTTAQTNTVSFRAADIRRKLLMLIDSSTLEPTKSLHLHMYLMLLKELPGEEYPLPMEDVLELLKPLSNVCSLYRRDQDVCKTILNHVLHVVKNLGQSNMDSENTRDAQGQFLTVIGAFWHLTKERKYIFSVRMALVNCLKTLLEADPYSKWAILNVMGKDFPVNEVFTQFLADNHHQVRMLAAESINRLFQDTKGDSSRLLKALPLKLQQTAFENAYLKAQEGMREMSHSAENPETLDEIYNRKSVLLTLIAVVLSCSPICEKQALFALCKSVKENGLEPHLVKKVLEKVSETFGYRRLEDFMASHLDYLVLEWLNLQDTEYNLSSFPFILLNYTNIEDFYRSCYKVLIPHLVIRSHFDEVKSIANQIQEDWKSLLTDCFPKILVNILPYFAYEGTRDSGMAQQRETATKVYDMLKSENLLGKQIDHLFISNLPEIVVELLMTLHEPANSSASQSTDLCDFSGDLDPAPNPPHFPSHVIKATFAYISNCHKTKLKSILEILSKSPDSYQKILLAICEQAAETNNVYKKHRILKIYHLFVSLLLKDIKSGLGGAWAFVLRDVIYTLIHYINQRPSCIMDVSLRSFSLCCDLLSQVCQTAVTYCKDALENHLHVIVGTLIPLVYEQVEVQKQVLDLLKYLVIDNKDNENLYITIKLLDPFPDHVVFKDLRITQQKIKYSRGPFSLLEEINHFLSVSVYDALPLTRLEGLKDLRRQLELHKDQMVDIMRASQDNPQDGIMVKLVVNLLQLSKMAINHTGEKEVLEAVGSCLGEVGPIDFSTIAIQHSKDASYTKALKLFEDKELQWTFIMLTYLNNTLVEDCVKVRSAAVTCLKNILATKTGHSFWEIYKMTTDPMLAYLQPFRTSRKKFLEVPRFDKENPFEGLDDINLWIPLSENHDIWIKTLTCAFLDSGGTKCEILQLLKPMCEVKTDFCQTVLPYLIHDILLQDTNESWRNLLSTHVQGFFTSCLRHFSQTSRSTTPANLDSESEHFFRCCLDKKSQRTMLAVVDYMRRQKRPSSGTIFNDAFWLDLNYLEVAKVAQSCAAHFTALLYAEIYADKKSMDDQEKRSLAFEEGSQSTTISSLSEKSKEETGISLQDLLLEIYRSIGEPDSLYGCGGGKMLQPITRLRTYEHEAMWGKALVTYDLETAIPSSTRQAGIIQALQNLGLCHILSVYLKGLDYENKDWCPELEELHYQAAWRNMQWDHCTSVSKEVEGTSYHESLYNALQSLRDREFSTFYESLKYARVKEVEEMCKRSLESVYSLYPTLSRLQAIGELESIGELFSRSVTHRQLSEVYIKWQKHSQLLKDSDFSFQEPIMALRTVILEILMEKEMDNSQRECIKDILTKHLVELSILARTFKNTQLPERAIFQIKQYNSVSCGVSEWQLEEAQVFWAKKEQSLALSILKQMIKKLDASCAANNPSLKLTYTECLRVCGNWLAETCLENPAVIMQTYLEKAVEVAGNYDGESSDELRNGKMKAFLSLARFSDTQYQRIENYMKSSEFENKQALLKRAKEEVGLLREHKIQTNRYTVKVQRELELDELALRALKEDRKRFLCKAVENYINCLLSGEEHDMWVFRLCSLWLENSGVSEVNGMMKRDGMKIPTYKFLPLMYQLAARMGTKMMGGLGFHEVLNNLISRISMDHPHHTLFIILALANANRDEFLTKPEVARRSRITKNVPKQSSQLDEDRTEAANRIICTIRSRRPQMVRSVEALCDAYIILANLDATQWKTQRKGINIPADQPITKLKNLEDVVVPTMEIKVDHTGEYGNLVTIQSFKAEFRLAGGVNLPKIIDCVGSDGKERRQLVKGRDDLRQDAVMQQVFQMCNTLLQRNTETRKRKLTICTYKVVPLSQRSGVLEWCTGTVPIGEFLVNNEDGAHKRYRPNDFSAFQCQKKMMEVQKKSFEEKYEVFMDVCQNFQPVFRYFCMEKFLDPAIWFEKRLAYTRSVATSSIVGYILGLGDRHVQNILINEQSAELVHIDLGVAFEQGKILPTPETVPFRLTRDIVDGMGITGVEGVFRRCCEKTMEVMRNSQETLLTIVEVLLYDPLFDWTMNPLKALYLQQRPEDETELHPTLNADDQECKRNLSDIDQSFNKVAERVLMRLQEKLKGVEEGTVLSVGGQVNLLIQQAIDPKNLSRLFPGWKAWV

SW480 [5] = experiment: Synergistic cytotoxicity against human SW480 cells measured after 9 days in presence of 5 uM KU60019 by SRB assay; format: functional, cell-based; conditions: SW480, 216 h
[6] = molecular target: T1, Serine-protein kinase ATM; experiment: Inhibition of ATM (unknown origin) assessed as decrease in phosphorylation of ATM at 25 uM measured in presence of 50 nM AZD0156 by Western blot analysis
NCI-H1299 [7] = experiment: Synergistic cytotoxicity against human NCI-H1299 cells measured in presence of 5 uM KU60019 after 2 days by SRB assay; format: functional, cell-based; conditions: NCI-H1299, 48 h
[8] = molecular target: T1, Serine-protein kinase ATM; experiment: Inhibition of ATM (unknown origin) assessed as decrease in phosphorylation of p21 at 25 uM measured in presence of 5 uM KU60019 by Western blot analysis
MCF7 [9] = experiment: Synergistic cytotoxicity against human MCF7 cells assessed as combination index measured after 6 days in presence of 5 uM KU55933 by SRB assay; format: functional; conditions: time 6 day
[10] = molecular target: T1, Serine-protein kinase ATM; experiment: Inhibition of ATM (unknown origin) assessed as decrease in phosphorylation of p21 at 25 uM measured in presence of 1 uM KU60019 by Western blot analysis
MCF7 [11] = experiment: Induction of apoptosis in human MCF7 cells at 62 nM in presence of 1 to 5 uM KU60019 measured after 6 days by Annexin V-FITC/propidium iodide staining based flow cytometry analysis; format: functional, cell-based; conditions: time 6.0 day
MCF7 [12] = experiment: Induction of cell cycle arrest in human MCF7 cells assessed as decrease in accumulation of cells at G1-phase in presence of 5 uM KU60019 measured after 24 hrs by PI staining based flow cytometric analysis; format: functional
SW480 [13] = experiment: Synergistic cytotoxicity against human SW480 cells assessed as combination index measured after 9 days in presence of 50 nM AZD0156 by SRB assay; format: functional; conditions: time 9 day
NCI-H1299 [14] = experiment: Synergistic cytotoxicity against human NCI-H1299 cells assessed as combination index measured in presence of 5 uM KU60019 after 2 days by SRB assay; format: functional; conditions: time 2 day
[15] = molecular target: T1, Serine-protein kinase ATM; experiment: Inhibition of ATM (unknown origin) assessed as decrease in phosphorylation of p21 at 25 uM measured in presence of 50 nM AZD0156 by Western blot analysis
MCF7 [16] = experiment: cells; conditions: Homo sapiens, MCF7, 144 h
SW480 [17] = experiment: Antagonistic cytotoxicity against human SW480 cells measured after 3 days in presence of 50 nM AZD0156 by SRB assay; format: functional, cell-based; conditions: SW480, 72 h
MCF7 [18] = experiment: cells; conditions: Homo sapiens, MCF7, 144 h; remark: listed apart in the source
MCF7 [19] = experiment: Synergistic cytotoxicity against human MCF7 cells assessed as combination index measured after 6 days in presence of 50 nM AZD0156 by SRB assay; format: functional; conditions: time 6 day
MCF7 [20] = experiment: Induction of cell cycle arrest in human MCF7 cells assessed as accumulation of cells at S-phase measured after 24 hrs by PI staining based flow cytometric analysis; format: functional; conditions: DDE = dose-dependent effect
NCI-H1299 [21] = experiment: Synergistic cytotoxicity against human NCI-H1299 cells measured in presence of 50 nM AZD0156 after 2 days by SRB assay; format: functional, cell-based; conditions: NCI-H1299, 48 h
[22] = molecular target: T1, Serine-protein kinase ATM; experiment: Inhibition of ATM (unknown origin) assessed as decrease in phosphorylation of KAP1 at 25 uM measured in presence of 1 to 5 uM KU60019 by Western blot analysis
MCF7 [23] = experiment: Induction of apoptosis in human MCF7 cells at 62 nM in presence of 50 nM AZD0156 measured after 6 days by Annexin V-FITC/propidium iodide staining based flow cytometry analysis; format: functional, cell-based; conditions: time 6.0 day
[24] = molecular target: T1, Serine-protein kinase ATM; experiment: Inhibition of ATM (unknown origin) assessed as decrease in phosphorylation of KAP1 at 25 uM measured in presence of 50 nM AZD0156 by Western blot analysis
MCF7 [25] = experiment: Induction of cell cycle arrest in human MCF7 cells assessed as accumulation of cells at S-phase in presence of 5 uM KU60019 measured after 24 hrs by PI staining based flow cytometric analysis; format: functional
MCF7 [26] = experiment: Antagonistic cytotoxicity against human MCF7 cells in presence of 30 uM 3-Chloro-4-methoxy-N-((4-(oxazolo[4,5-b]pyridin-2-yl)phenyl)carbamothioyl)benzamide measured after 6 days by SRB assay; format: functional, cell-based; conditions: MCF7, 144 h
SW480 [27] = experiment: Antitumor activity against human SW480 cells xenografted in BALB/c nude mouse assessed as reduction in tumor weight at 20 mg/kg, ip in presence of 30 mg/kg, iv 2(((2-(2,4-dichlorobenzyl)oxy)naphthalen-1-yl)methyl)amino)ethan-1-ol; format: functional, organism-based
SW480 [28] = experiment: Antitumor activity against human SW480 cells xenografted in BALB/c nude mouse assessed as reduction in tumor weight at 20 mg/kg, ip; format: functional, organism-based
MCF7 [29] = experiment: Antagonistic cytotoxicity against human MCF7 cells assessed as combination index in presence of 30 uM 3-Chloro-4-methoxy-N-((4-(oxazolo[4,5-b]pyridin-2-yl)phenyl)carbamothioyl)benzamide measured after 6 days by SRB assay; format: functional; conditions: time 6 day
NCI-H1299 [30] = experiment: Antagonistic cytotoxicity against human NCI-H1299 cells measured in presence of 50 nM AZD0156 after 2 days by SRB assay; format: functional, cell-based; conditions: NCI-H1299, 48 h
MCF7 [31] = experiment: Additive cytotoxicity against human MCF7 cells assessed as combination index measured after 6 days in presence of 5 uM KU55933 by SRB assay; format: functional; conditions: time 6 day
NCI-H1299 [32] = experiment: Additive cytotoxicity against human NCI-H1299 cells assessed as combination index measured in presence of 5 uM KU60019 after 2 days by SRB assay; format: functional; conditions: time 2 day
NCI-H1299 [33] = experiment: Antagonistic cytotoxicity against human NCI-H1299 cells assessed as combination index measured in presence of 50 nM AZD0156 after 2 days by SRB assay; format: functional; conditions: time 2 day
MCF7 [34] = experiment: cells; conditions: Homo sapiens, MCF7, 144 h; remark: listed apart in the source
NCI-H1299 [35] = experiment: Additive cytotoxicity against human NCI-H1299 cells measured in presence of 5 uM KU60019 after 2 days by SRB assay; format: functional, cell-based; conditions: NCI-H1299, 48 h
MCF7 [36] = experiment: Additive cytotoxicity against human MCF7 cells measured after 6 days in presence of 5 uM KU55933 by SRB assay; format: functional; conditions: time 6 day

**Q.** What does the source list for COc1cc([C@@H]2c3cc4c(cc3[C@@H](O[C@@H]3O[C@@H]5CO[C@@H](C)O[C@H]5[C@H](O)[C@H]3O)[C@H]3COC(=O)[C@H]23)OCO4)cc(OC)c1O [ETOPOSIDE]?
**A.** CI (NCI-H1299 [1]): 0.82; CI (NCI-H1299 [2]): 0.39; CI (MCF7 [3]): 1.01; inhibition [4]: Active; IC50 (SW480 [5]): < 0.01 µM; inhibition [6]: Active; IC50 (NCI-H1299 [7]): 5.75 µM; inhibition [8]: 53%; CI (MCF7 [9]): 0.73; inhibition [10]: 25%; Activity (MCF7 [11]): Active; Activity (MCF7 [12]): Active; CI (SW480 [13]): 0.17; CI (NCI-H1299 [14]): 0.84; inhibition [15]: 41%; IC50 (MCF7 [16]): 0.59 µM; IC50 (SW480 [17]): 3.6 µM; IC50 (MCF7 [18]): 0.56 µM; CI (MCF7 [19]): 0.19; Activity (MCF7 [20]): Dde; IC50 (NCI-H1299 [21]): 8.86 µM; inhibition [22]: Active; Activity (MCF7 [23]): Active; inhibition [24]: Active; Activity (MCF7 [25]): Active

**Q.** What does the source list for CCc1c2c(nc3ccc(OC(=O)N4CCC(N5CCCCC5)CC4)cc13)-c1cc3c(c(=O)n1C2)COC(=O)[C@]3(O)CC [IRINOTECAN]?
**A.** IC50 (MCF7 [26]): 2.42 µM; Activity (SW480 [27]): Active; CI (NCI-H1299 [2]): 0.25; Activity (SW480 [28]): Active; IC50 (SW480 [5]): < 0.12 µM; CI (MCF7 [29]): 1.49; IC50 (NCI-H1299 [30]): 15.2 µM; CI (MCF7 [31]): 0.18; CI (SW480 [13]): 0.22; CI (NCI-H1299 [32]): 1.04; CI (MCF7 [19]): 0.97; CI (NCI-H1299 [33]): 1.13; IC50 (MCF7 [34]): 0.21 µM; IC50 (NCI-H1299 [35]): 9.83 µM; CI (MCF7 [36]): 0.16
